Converted amounts (≈) assume the structure as drawn. “And” between values parts separate entries of the source, which are not always exact repeats. Identical values can stand only once. Like-named read-outs stand apart in the source and are kept apart here.
Assays:
Staphylococcus aureus [1] = assay: Broth Macro Dilution Test, MIC and MBC; assay type: cell-based; conditions: Example 12: strain from non-healing burn wound swab culture, antibiotic alone
Method: (§1) This was done by estimation of the Minimum Inhibitory Concentration (MIC) and Minimum Bactericidal Concentration (MBC) on the selected isolates by a Broth Macro Dilution Test.
(§2) Cation Supplemented Mueller Hinton Broth was used as medium for all organisms excepting for β haemolytic streptococci for which, Todd Hewit's Broth was used as medium.
(§3) The following concentrations of antibiotics were tested to determine MIC and MBC.
(§4) A minimum inhibitory concentration is the lowest level of antibiotic needed to cause an inhibition to bacterial growth in culture medium whereas, the minimum bactericidal concentration is the lowest concentration of antibiotic to achieve a 100% killing of bacteria. Thus, these two values are the practical indices of intensity of bacterial resistance to a given antibiotic. On the other hand, a break-even point of any antibiotic indicates the attainable blood levels after an administration of full dose, in human/animal body. Thus, this point indicates the practical dosage of administering any given antibiotic effectively and beyond this point, even if an antibiotic is found to act effectively in experimental situation—such dose cannot be administered in a clinical situation.

Staphylococcus aureus [2] = assay: Broth tube test of NE with antibiotic at break point, percentage of killing; assay type: cell-based; conditions: Example 12 strain; antibiotic with NE, uniform for all the concentrations of NE
Method: (§5) Since all the study isolates are resistant to the concerned antibiotics, each antibiotic is taken at its breakpoint concentration, (the highest serum concentration of that particular antibiotic reached after the maximum therapeutic dose in-vivo). The break points for various antibiotics are as follows:
(§6) Preparation of Neem Extract: Stock solution of neem extract (1 mg/ml) was prepared, filtered and autoclaved. It was used in 4 concentrations—1000 μg/ml; 500 μg/ml; 250 μg/ml; 125 μg/ml.
(§7) A set of four tubes with variable concentrations of the extract is prepared and to each of these tubes, the break point concentration of antibiotics is added. Now, these sets are inoculated with the study isolate in the same manner as per the broth dilution procedure. A set of six controls is inoculated with each isolate—in parallel with the main experiment.
(§8) 2. Only antibiotic solution
(§9) 3. Medium and antibiotic solution with inoculum
(§10) 5. Only Neem extract at 250 μg/ml
(§11) 6. Medium with Neem Extract and inoculum
(§12) Reading the test All the tests and control tubes are observed for visible turbidity of growth first. Since all the study isolates were earlier confirmed to be resistant to the antibiotics, the bacterial growth is expected at the breakpoint concentration of the antibiotic. Any reduction in the turbidity as compared to the control tube no. 3 is noted as a possible additive or synergistic effect of the neem extract with the antibiotic. In absence of such effect, the tubes may show growth matching with the control no. 4.
(§13) In case of a positive result, further sub-culturing was taken up, on solid media for colony counts with a calibrated loop. The colony counts could be noted by a semi quantitative method as 101 to 10^5 CFU/ml (Colony forming units). This is finally expressed as the percentage of killing as compared to the colony count obtained with control no. 4. Usually control tubes no. 3, 4 and 6 had similar colony counts.

Staphylococcus aureus [3] = assay: Agar Dilution Method of Sensitivity testing, NE alone and NE + antibiotic; assay type: cell-based; conditions: for Growth Patterns after addition of NE: no. of cultures +++ (growth) / Growth Patterns after addition of NE: no. of cultures −−− (inhibition of growth): resistant S. aureus cultures, 48 hours
Method: (§14) Two kinds of investigations were carried-out using these bacterial isolates—using an Agar Dilution Method of Sensitivity testing.
(§15) i) To ascertain whether, NE can work as an antibacterial substance on its own. For this purpose, a stock-solution of NE was prepared and was sterilized as described in the preliminary experiments.
(§16) ii) This stock-solution was dispensed into the culture medium (Mueller Hinton Agar) so as to provide while; the medium was in liquid form. Four different concentrations of NE, viz.
(§17) iii) This medium was poured into petri dishes and allowed to solidify. Resistant cultures were inoculated on to these plates and after incubation for 48 hours, the growth patterns were assessed.
(§18) iv) The experiments were run in triplicate, for each concentration—as per standard practices of microbiological testing procedures.
(§19) i) The culture medium (Mueller Hinton Agar) was melted and distributed into a number of test tubes.
(§20) ii) The stock solution of NE was dispensed into these test tubes in four different concentrations viz.
(§21) iii) In the same medium, one of the antibiotics under investigation was also added so as to provide a variable concentration (at break-even point concentration) as described below:
(§22) iv) The culture medium containing NE extract+the antibiotic were poured into petri dishes and allowed to solidify.
(§23) v) The resistant bacterial strains were inoculated onto these plates, incubated for 48 hours and the growth patterns were studied on each plate.
These cultures were obtained various clinical samples, such as sputum, non-healing infected wounds, throat swabs etc.

Klebsiella pneumoniae = assay: as above; assay type: cell-based; conditions: 41 resistant K. pneumoniae strains, 48 hours
Method: as §14, §15, §16, §17, §18, §19, §20, §21, §22, §23
Under the same series of investigations, sensitization effect of NE was evaluated on resistant isolates of Klebsiella pneumoniae.

Escherichia coli = assay: as above; assay type: cell-based; conditions: 37 resistant E. coli strains, 48 hours
Method: as §14, §15, §16, §17, §18, §19, §20, §21, §22, §23

Proteus mirabilis = assay: Agar Dilution Method of Sensitivity testing, NE + antibiotic; assay type: cell-based; conditions: resistant Proteus mirabilis strains, 48 hours
Method: as §14, §19, §20, §21, §22, §23
The sensitization effect of NE was also examined on Proteus mirabilis strains resistant to Penicillin derivatives and quinolone derivative antibiotics.

Mixed Infections = assay: Clinical study of NE tablets + antibiotic in non-responding infections
[4] = test system: respiratory/surgical infections by bacteria resistant to the antibiotic; assay: Clinical study of NE tablets + antibiotic in non-responding infections, all cases; conditions: NE tablets 100 mg twice a day + that antibiotic, 1-3 weeks
[5] = test system: β-haemolytic streptococci; assay: Broth Macro Dilution Test, MIC and MBC; assay type: cell-based; conditions: antibiotic alone, read-out: minimum inhibitory concentration (MIC)
Method: as §1, §2, §3, §4

[6] = test system: β-haemolytic streptococci; assay: Broth tube test of NE with antibiotic at break point, percentage of killing; assay type: cell-based; conditions: for bacterial growth in control tubes: NE and antibiotic added individually
Method: as §5, §6, §7, §8, §9, §10, §11, §12, §13

[7] = highest serum concentration reached after the maximum therapeutic dose in-vivo; cited from earlier work
Staphylococcus aureus [8] = assay: Clinical study of NE tablets + antibiotic in non-responding infections; conditions: NE tablets + antibiotic to which resistant
[9] = antibiotic at break-even point + NE 125 μg/mL
[10] = antibiotic at break-even point + NE 250 μg/mL
[11] = antibiotic at break-even point + NE 500 μg/mL
[12] = antibiotic at break-even point + NE 1000 μg/mL
[13] = Respiratory Infections, NE tablets + antibiotic to which resistant
[14] = all mixed infections resistant to the antibiotic, NE tablets + antibiotic

CC1(C)S[C@@H]2[C@H](NC(=O)[C@H](N)c3ccccc3)C(=O)N2[C@H]1C(=O)O [Ampicillin]
MBC (Staphylococcus aureus [1]): > 128 µg/mL
MIC (Staphylococcus aureus [1]): 64 µg/mL (≈ 183 µM)
killing (Staphylococcus aureus [2]): 80% and 70%
Growth Patterns after addition of NE: no. of cultures +++ (growth) (Staphylococcus aureus [3]; [9]): 34
Growth Patterns after addition of NE: no. of cultures −−− (inhibition of growth) (Staphylococcus aureus [3]; [9]): 68
Growth Patterns after addition of NE: no. of cultures +++ (growth) (Staphylococcus aureus [3]; [10]): 29
Growth Patterns after addition of NE: no. of cultures −−− (inhibition of growth) (Staphylococcus aureus [3]; [10]): 73
Growth Patterns after addition of NE: no. of cultures +++ (growth) (Staphylococcus aureus [3]; [11]): 26
Growth Patterns after addition of NE: no. of cultures −−− (inhibition of growth) (Staphylococcus aureus [3]; [11]): 76
Growth Patterns after addition of NE: no. of cultures +++ (growth) (Staphylococcus aureus [3]; [12]): 20
Growth Patterns after addition of NE: no. of cultures −−− (inhibition of growth) (Staphylococcus aureus [3]; [12]): 82
Growth Patterns after addition of NE: no. of cultures +++ (growth) (Klebsiella pneumoniae; [9]): 17
Growth Patterns after addition of NE: no. of cultures −−− (inhibition of growth) (Klebsiella pneumoniae; [9]): 24
Growth Patterns after addition of NE: no. of cultures +++ (growth) (Klebsiella pneumoniae; [10]): 17
Growth Patterns after addition of NE: no. of cultures −−− (inhibition of growth) (Klebsiella pneumoniae; [10]): 24
Growth Patterns after addition of NE: no. of cultures +++ (growth) (Klebsiella pneumoniae; [11]): 17
Growth Patterns after addition of NE: no. of cultures −−− (inhibition of growth) (Klebsiella pneumoniae; [11]): 24
Growth Patterns after addition of NE: no. of cultures +++ (growth) (Klebsiella pneumoniae; [12]): 17
Growth Patterns after addition of NE: no. of cultures −−− (inhibition of growth) (Klebsiella pneumoniae; [12]): 24
Growth Patterns after addition of NE: no. of cultures +++ (growth) (Escherichia coli; [9]): 31
Growth Patterns after addition of NE: no. of cultures −−− (inhibition of growth) (Escherichia coli; [9]): 6
Growth Patterns after addition of NE: no. of cultures +++ (growth) (Escherichia coli; [10]): 31
Growth Patterns after addition of NE: no. of cultures −−− (inhibition of growth) (Escherichia coli; [10]): 6
Growth Patterns after addition of NE: no. of cultures +++ (growth) (Escherichia coli; [11]): 31
Growth Patterns after addition of NE: no. of cultures −−− (inhibition of growth) (Escherichia coli; [11]): 6
Growth Patterns after addition of NE: no. of cultures +++ (growth) (Escherichia coli; [12]): 31
Growth Patterns after addition of NE: no. of cultures −−− (inhibition of growth) (Escherichia coli; [12]): 6
Growth Patterns after addition of NE: no. of cultures +++ (growth) (Proteus mirabilis; [9]): 7
Growth Patterns after addition of NE: no. of cultures −−− (inhibition of growth) (Proteus mirabilis; [9]): 3
Growth Patterns after addition of NE: no. of cultures +++ (growth) (Proteus mirabilis; [10]): 7
Growth Patterns after addition of NE: no. of cultures −−− (inhibition of growth) (Proteus mirabilis; [10]): 3
Growth Patterns after addition of NE: no. of cultures +++ (growth) (Proteus mirabilis; [11]): 7
Growth Patterns after addition of NE: no. of cultures −−− (inhibition of growth) (Proteus mirabilis; [11]): 3
Growth Patterns after addition of NE: no. of cultures +++ (growth) (Proteus mirabilis; [12]): 7
Growth Patterns after addition of NE: no. of cultures −−− (inhibition of growth) (Proteus mirabilis; [12]): 3
No. of Cases Gr.-I (Mixed Infections; [13]): 1
No. of Cases Gr.-II (Mixed Infections; [13]): 1
No. of Cases Gr.-II (Mixed Infections; Surgical Infections, NE tablets + antibiotic to which resistant): 1
No. of cases with effective sensitization / complete response (Mixed Infections; [14]): 2
No. of cases with partial response (Mixed Infections; [14]): one
No. of cases with Grade-II response (complete clinical and bacteriological) [4]: 4

CC[C@H]1OC(=O)[C@H](C)[C@@H](O[C@H]2C[C@@](C)(OC)[C@@H](O)[C@H](C)O2)[C@H](C)[C@@H](O[C@@H]2O[C@H](C)C[C@H](N(C)C)[C@H]2O)[C@](C)(O)C[C@@H](C)C(=O)[C@H](C)[C@@H](O)[C@]1(C)O [Erythromycin]
MBC (Staphylococcus aureus [1]): > 256 µg/mL
MIC ([5]; Example 8: isolate from throat swab culture): 64 µg/mL (≈ 87.2 µM)
MIC ([5]; Example 9: isolate from sputum culture): 32 µg/mL (≈ 43.6 µM)
bacterial growth in control tubes ([6]; Example 8 isolate): unhindered
bactericidal effect ([6]; Example 8 isolate, antibiotic 4 μg/ml combined with NE 1000 μg/ml): 99%
bactericidal effect ([6]; Example 8 isolate, antibiotic 4 μg/ml combined with NE 125, 250 and 500 μg/ml): 100%
bacterial growth in control tubes ([6]; Example 9 isolate): unhindered
bactericidal effect ([6]; Example 9 isolate, antibiotic at break even point combined with NE 250 μg/ml and 125 μg/ml): 99%
killing ([6]; Example 9 isolate, antibiotic at break-even point combined with NE 500 μg/ml or 1000 μg/ml): 50%
clinical strains sensitized by NE to the antibiotic (Staphylococcus aureus [3]; 102 resistant S. aureus cultures, NE + antibiotic): 50%
Growth Patterns after addition of NE: no. of cultures +++ (growth) (Staphylococcus aureus [3]; [9]): 72
Growth Patterns after addition of NE: no. of cultures −−− (inhibition of growth) (Staphylococcus aureus [3]; [9]): 30
Growth Patterns after addition of NE: no. of cultures +++ (growth) (Staphylococcus aureus [3]; [10]): 66
Growth Patterns after addition of NE: no. of cultures −−− (inhibition of growth) (Staphylococcus aureus [3]; [10]): 36
Growth Patterns after addition of NE: no. of cultures +++ (growth) (Staphylococcus aureus [3]; [11]): 61
Growth Patterns after addition of NE: no. of cultures −−− (inhibition of growth) (Staphylococcus aureus [3]; [11]): 41
Growth Patterns after addition of NE: no. of cultures +++ (growth) (Staphylococcus aureus [3]; [12]): 51
Growth Patterns after addition of NE: no. of cultures −−− (inhibition of growth) (Staphylococcus aureus [3]; [12]): 51
break point [7]: 4 µg/mL

CC[C@H]1OC(=O)[C@H](C)[C@@H](O[C@H]2C[C@@](C)(OC)[C@@H](O)[C@H](C)O2)[C@H](C)[C@@H](O[C@@H]2O[C@H](C)C[C@H](N(C)C)[C@H]2O)[C@](C)(O)C[C@@H](C)/C(=N\OCOCCOC)[C@H](C)[C@@H](O)[C@]1(C)O [Roxythromycin]
No. of Cases Gr.-I (Staphylococcus aureus [8]; Respiratory Infections): 1
No. of Cases Gr-0 (Staphylococcus aureus [8]; Surgical Infections): 1
No. of Cases Gr.-II (Staphylococcus aureus [8]; Surgical Infections): 2
No. of cases with Grade-II response (complete clinical and bacteriological) [4]: 2
